In experiment [1] the test system is DND-41 T-ALL cell line. Briefly: Cell proliferation assay (CellTiter-Glo cell viability), DND-41. Type of experiment: cell-based. To be noted: DND41, 168 h, 7 days, read-out: IC50, cell viability normalized to DMSO. On the procedure: (§1) FIG. 16A-16E is a series of graphs showing inhibition of T-ALL proliferation by PI3K inhibitor is increased when combined with GSI. DND-41, HPB-ALL, KOPT-K1, Jurkat and Loucy T-ALL cell lines were treated with Buparlisib, GSI, Buparlisib with 1 μM of GSI or DMSO for 7 days. Dose response curves of cell viability normalized to DMSO are shown (datapoints are derived from 3 replicates each, error bars show standard deviation).
(§2) The leukemia cell lines (all verified by STR profiling) DND-41, KOPT-K1, HPB-ALL, Loucy, MOLT-4, NALM-6, SEM, KG-1 and HL-60 were obtained from ATCC or DSMZ, and were cultured in RPMI 1640 with 10% of heat-inactivated fetal bovine serum, 1% penicillin/streptomycin (Invitrogen).
(§3) Buparlisib (Selleckchem) and GSI (Santa Cruz Biotechnology, Inc) were prepared in DMSO (Sigma-Aldrich). Cell proliferation assays were measured by CellTiter-Glo Luminescent Cell viability assay (Promega), after a period of seven days. IC50 values were calculated by fitting the dose-response curves to a three-parameter sigmoid dose-response model using GraphPad. Error bars reflect standard deviation.
A general note: In ATP-based viability assays light output follows the ATP content of the culture.

In experiment [2] the test system is HPB-ALL T-ALL cell line. Briefly: Cell proliferation assay (CellTiter-Glo cell viability), HPB-ALL. In kind it is cell-based. As to conditions: Homo sapiens, HPBALL, 168 h, 7 days, read-out: IC50, cell viability normalized to DMSO. On the procedure: as §1, §2, §3
The test system of experiment [3] is KOPT-K1 T-ALL cell line. Briefly: Cell proliferation assay (CellTiter-Glo cell viability), KOPT-K1. In kind it is cell-based. As to conditions: Homo sapiens, KOPTK1, 168 h, 7 days, read-out: IC50, cell viability normalized to DMSO. On the procedure: as §1, §2, §3
Experiment [4] relates to Jurkat T-ALL cell line. Description: Cell proliferation assay (CellTiter-Glo cell viability), Jurkat. Type of experiment: cell-based. As to conditions: Homo sapiens, 168 h, 7 days, read-out: IC50, cell viability normalized to DMSO. Here is the method:
as §1, §3

For experiment [5], the system named is Loucy T-ALL cell line. Description: Cell proliferation assay (CellTiter-Glo cell viability), Loucy. Type of experiment: cell-based. As to conditions: 168 h, 7 days, read-out: IC50, cell viability normalized to DMSO. Here is the method: as §1, §2, §3
Experiment [6] concerns Notch. Briefly: Single-cell RNA-seq of leukemic cells of ETP T-ALL patients before and after GSI treatment. Type of experiment: in vivo, human. To be noted: scRNA-seq. An excerpt:
Banked blood or bone marrow samples from patients with relapsed/refractory ETP T-ALL (see Table 1) were used in this study. All patients provided informed consent and were enrolled on a phase I clinical trial (NCT01363817) with the γ-secretase inhibitor (GSI) BMS-906024, a Notch inhibitor. Ayala Pharmaceuticals is investigating AL101 (BMS-906024) in a Phase II open-label, single-arm, multicenter study in ACC patients harboring known NOTCH1-4 activating mutations (ACCURACY; NCT03691207). Normal donor blood was obtained from Research Blood Components, LLC; and mononuclear cells (PBMCs) were isolated using Ficoll-Paque PLUS from GE Healthcare.
Full-length single-cell RNA-seq libraries were prepared using the SMART-seq2 protocol (Picelli et al., 2014 Nat Protoc, 9(1):171-181). cDNA was fragmented using Nextera XT (Illumina) and amplified with indexed Nextera PCR primers. Products were quantified using a Bioanalyzer High Sensitivity DNA Kit. Pooled libraries were sequenced on a NextSeq 500 (Illumina) with an average sequencing depth of 0.5-1 million reads per cell.
Processing and quality filtering of scRNA-seq data was carried out using trimmomatic^21, STAR (Dobin et al., 2013 Bioinformatics, 29(1):15-21), HTSeq (Anders et al., 2015 Bioinformatics, 31(2):166-169) and RSEM (Li et al., 2011 BMC Bioinformatics, 12:323). Clustering of single-cell profiles and marker gene analyses were performed using PAGODA2 (Fan et al., 2016 Nature methods, 13(3):241-244), monocole2 (Trapnell et al., 2014 Nat Biotechnol, 32(4):381-386), SEURAT (Butler et al., 2018 Nature Biotechnology, 36(5):411-420) and RNA velocity (La et al., 2018 Nature, 560(7719):494-498). Single nucleotide variant and copy number analyses were performed with mutect2 (Cibulskis et al., 2013 Nat Biotechnol, 31(3):213-219), InferCNV (Patel et al., 2014 Science, 344(6190):1396-1401; Tirosh et al., 2016 Science, 352(6282):189-196) and CONICSmat (Muller et al., 2018 Bioinformatics, 34(18):3217-3219). Single-cell profiles were compared with cell types from ImmGen (Heng et al., 2008 Nat Immunol, 9[…] a log-likelihood model. Transcriptional regulon and signaling pathway activities were analyzed with SCENIC (Fernandez et al., 2016 Cell Syst, 3(5):491-495 e495) and PROGENy (Schubert et al., 2018 Nat Commun, 9(1):20). Further details of the analysis are set forth below.
In order to fully define ETP T-ALL heterogeneity on the single-cell level, a full-length transcriptome analysis of 5,077 malignant and normal immune cells (T-cells, B-cells and monocytes) was performed from bone marrow or blood from four healthy donors and five patients with relapsed/refractory ETP T-ALL, diagnosed by immunophenotyping for ETP T-ALL, all with NOTCH1 gain-of-function mutations. These patients were treated with the γ-secretase inhibitor (GSI), and pre- and post-treatment samples were processed for this study.
The effects of Notch inhibition were next explored. […] It was hypothesized that persistence of a stem-like population might be the reason for the limited effects of Notch inhibitors in patients with relapsed/refractory Notch-mutant T-ALL.

Setting [7] is: ETP T-ALL patients treated with GSI.

Where two headings read alike, the source gives them in different places.

In the case of `Nc1cc(C(F)(F)F)c(-c2cc(N3CCOCC3)nc(N3CCOCC3)n2)cn1` [Buparlisib], the IC50 was determined as 1010 nM in experiment [1] (DND-41, Buparlisib alone); 132 nM in experiment [1] (DND-41, Buparlisib with 1 μM of GSI); 340 nM in experiment [2] (Buparlisib alone); 0.00723 nM in experiment [2] (Buparlisib with 1 μM of GSI); 1160 nM in experiment [3] (KOPT-K1, Buparlisib alone); 250 nM in experiment [3] (KOPT-K1, Buparlisib with 1 μM of GSI). The IC50 in experiment [4] (Buparlisib alone) turned out to be 720 nM; in experiment [4] (Buparlisib with 1 μM of GSI), 423 nM; in experiment [5] (Buparlisib alone), 650 nM; in experiment [5] (Buparlisib with 1 μM of GSI) it was 710 nM.

Regarding `CN1C(=O)[C@@H](NC(=O)[C@H](CCC(F)(F)F)[C@H](CCC(F)(F)F)C(N)=O)N=C(c2ccccc2)c2ccccc21` [GSI, BMS-906024], in experiment [6] (setting [7]), the “Cell cycle of leukemic cells upon treatment” value is listed as “Cell cycle arrest” and the “Notch target gene expression upon treatment” value was “downregulation of Notch target genes”. Moreover, in experiment [6] (ETP T-ALL patients), the “Cycling stem-like root cells (root2) after treatment” value is given as “abolishes the cycling stem-like root cells (root2)” and the “Non-cycling root cells (root1) after treatment” value is listed as “persist in the face of treatment”. Moreover, the “Cells with high PI3K signaling activity compared to untreated cells” value in experiment [6] (ETP T-ALL patients, PROGENy) is given as “enrichment of cells with high PI3K signaling activity”.

One may read the IC50 as the concentration that gives 50% inhibition.

These data come from US12559559B2, “Targeting Galectin-9 as a therapeutic strategy for T-cell exhaustion in T-cell acute lymphoblastic leukemia” (DANA-FARBER CANCER INSTITUTE, INC., priority 2019, dated 2026).
